In patent publication US7902188B2, “Morpholine dopamine agonists” (Pfizer Inc., priority 2002, dated 2011):

Target: T1, human dopamine D2long receptor (Homo sapiens, UniProt P14416)
T1 construct: expressed in transfected cells; host or cells: GH4C1 rat pituitary cells
Assay: Inhibition via dopamine D2 receptors of forskolin-stimulated adenylate cyclase activity (cAMP Flashplate, GH4C1/hD2L cells)
Format: cell-based
Conditions: D2 EC50 value divided by D3 EC50 value; where D2 EC50 was >10000, a figure of 10000 was used
Protocol: A suitable assay for determining functionally the activity of a compound at D3 and/or […] dopamine receptors is detailed hereinbelow. Compounds are evaluated as agonists or antagonists at the dopamine D2 and D3 receptors by looking at cAMP levels in a GH4C1 and CHO cell-line expressing the human D2 and D3 receptors, respectively.
Inhibition Via Dopamine D2 Receptors of Forskolin Stimulated Adenylate Cyclase Activity Materials Cell Culture Media:
4× assay stock of 20 μM made by carrying out a 1000-fold dilution in PBS buffer, 25 μl of the 20 μM stock is added to a final assay volume of 100 μl, giving a final assay concentration of 5 μM.
• Pramipexole is included as a reference standard. A 10-point, semi-log curve is generated every 4 plates. Compound responses are normalised to the minimum (0 nM pramipexole) and maximum (100 nM Pramipexole) responses generated by the cells. All test compounds may also be tested via a 10-point (semi-log) curve. • Test compounds are dissolved in 100% DMSO to yield a stock concentration of 10 mM, (1000× the final assay concentration required, e.g. 10 mM will give a top concentration of 10000 nM). • Pramipexole is dissolved in 100% DMSO to give a concentration of 10 mM. […]

T1 sequence (P14416 whole entry): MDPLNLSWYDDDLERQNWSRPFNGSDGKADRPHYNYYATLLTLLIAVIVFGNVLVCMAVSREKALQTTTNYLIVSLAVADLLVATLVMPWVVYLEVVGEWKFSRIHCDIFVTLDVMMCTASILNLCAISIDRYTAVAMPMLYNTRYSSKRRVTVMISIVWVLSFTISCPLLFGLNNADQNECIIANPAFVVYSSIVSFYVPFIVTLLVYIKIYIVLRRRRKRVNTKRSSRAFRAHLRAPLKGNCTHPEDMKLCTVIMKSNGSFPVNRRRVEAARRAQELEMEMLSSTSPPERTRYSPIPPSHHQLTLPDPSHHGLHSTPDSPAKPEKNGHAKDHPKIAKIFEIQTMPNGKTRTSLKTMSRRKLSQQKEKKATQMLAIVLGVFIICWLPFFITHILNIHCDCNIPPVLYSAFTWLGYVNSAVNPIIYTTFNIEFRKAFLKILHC

With `CCCN1CCO[C@H](c2cccc(O)c2)C1.Cl` [Example 8, R-(−)-3-(4-Propylmorpholin-2-yl)phenol hydrochloride] the “selectivity for D3 over D2” value was 1315.8 fold.
